Assays:
NPC patients = experiment: Observational clinical study of adult NPC patients treated with ADLL; assay type: in vivo, human
Text: Progression of a LSD or one or more symptoms of a LSD over time or through treatment can be monitored, for example, using one or more known tests at two or more time points and comparing the results. Disease progression and/or severity can be assessed, for example, using the Scale for the Assessment and Rating of Ataxia (SARA), Spinocerebellar Ataxia Functional Index (SCAFI), the International Cooperative Ataxia Rating Scale (ICARS), the brief ataxia rating scale (BARS), the modified Disability Rating Scale (mDRS), EuroQol 5Q-5D-5L (EQ-5D-5L), the visual analogue scale (VAS), Wechsler Adult Intelligence Scale-Revised (WAIS-R), Wechsler Intelligence Scale for Children-IV (WISC-IV), Montreal Cognitive Assessment (MoCA) or other suitable tests. For certain LSDs, such as NPC, particular scores have been developed and validated over the last decades, for instance the clinical severity score (CSS) and annual severity increment score (ASIS) (see Yanjanin et al., “Linear Clinical Progression, Independent of Age of Onset, in Niemann—Pick Disease, Type C,” Am J Med Genet Part B 153B:132-140) and the modified 6-Domain NP-C disability Scale (mDRS score). For example, an NPC patient's severity can be quantified by assigning a CSS, which assesses various parameters of the disease (ambulation, seizures, eye movement, etc.) and gives each parameter a score out of 5. A higher score equals a greater severity. The ASIS quantifies the annual rate of change in the CSS, calculated by dividing the CSS by the patient's age. In this regard, certain scores in these tests are characteristic of symptomatic LSD patients and evidence disease progression and/or severity.
Demographics and statistical analysis of a clinical observational study of adult NPC patients treated with ADLL: The cohort comprised 3 females and 10 males. Consent from all participants was obtained. Twelve of the NPC patients were on miglustat therapy (minimum exposure 2.65, 1t^st quartile 3.44, median 4.92, mean 4.87, 3rd quartile 5.80 and maximum 7.98 years). The thirteen NPC1 patients participated in an observational study treated with 5 g/day acetyl-DL-leucine (Tanganil™). Three patients had four prospective clinical severity score measurements and ten patients had five measurements taken during this observational study (NIH, CSS). Retrospective data were used to calculate rates of disease progression prior to recruitment to this study. The mean age at the start of acetyl-DL-leucine (Tanganil™) treatment was 26.59 years. The minimum age was 15.44, 1s^t quartile 20.97, median 26.98 and third quartile 30.79 with maximum age 37.37 years. The time in the observational treatment study was a […], 1st quartile 0.81, median 1, mean 0.95, third quartile 1.13 and maximum 1.21 years.

Sandhoff (Hexb^−/−) mice = experiment: Survival of Sandhoff (Hexb−/−) mice; assay type: in vivo, mouse; conditions: Hexb−/− mice treated from weaning, 0.1 g/kg/day
Protocol: BALBc/NPC ^h and Sandhoff mice were bred as heterozygotes to generate affected mice (Npc1^−/−, Hexb^−/−) and controls (Npc^+/+, Hexb^+/+). The mice were housed under non-sterile conditions, with food and water available ad libitum. All experiments were conducted using protocols approved by the UK Home Office Animal Scientific Procedures Act, 1986.
[…] Treatment groups for in vivo study consisted of at least 5 mice per group. In vitro studies were conducted with each compound dissolved in PBS to generate a 50 mM stock solution and diluted to a 1 mM working concentration in media (DMEM High Glucose-Gibco #10566016).
The weight and activity of each mouse was recorded weekly until reaching the humane endpoint (defined as a loss of 1 g body weight within 24 h). Gait analysis was performed using CatWalk 10.5 system (Noldus) according to the manufacturer's instructions and five runs were recorded per animal at each time point. The camera was set to 40 cm below the walkway, the walkway was approximately 4 cm wide, and detection settings set to camera gain 14.05 and green intensity 0.12. Motor function was measured using an accelerating NG Rota Rod for mice (Ugo Basile) starting from 1 rpm to 10 rpm, accelerating every 30 seconds by one rpm. […] Latency to cross or fall from the bar was scored, with 120 sec, maximum, to termination of each trial. […]

[1] = number of the 13 treated NPC patients, neurological subdomain

SMILES: CC(=O)NC(CC(C)C)C(=O)O (racemic) [ADLL, N-acetyl-DL-leucine]
- mean change in Annual Severity Increment Scores (ASIS) (NPC patients; 13 NPC patients): −9.1 %/year
- average slope of disease progression (total clinical severity score) following initiation of treatment (NPC patients; 13 adult NPC patients, 5 g/day, 12 also on miglustat, average slope before treatment 1.8): −1.78 severity units/year
- Ambulation: Deteriorated (NPC patients; [1]): 1
- Ambulation: Improved (NPC patients; [1]): 8
- Ambulation: Stable (NPC patients; [1]): 4
- Cognition: Deteriorated (NPC patients; [1]): 1
- Cognition: Improved (NPC patients; [1]): 6
- Cognition: Stable (NPC patients; [1]): 6
- Eye movement: Deteriorated (NPC patients; [1]): 1
- Eye movement: Improved (NPC patients; [1]): 8
- Eye movement: Stable (NPC patients; [1]): 4
- Fine motor skills: Deteriorated (NPC patients; [1]): 2
- Fine motor skills: Improved (NPC patients; [1]): 8
- Fine motor skills: Stable (NPC patients; [1]): 3
- Memory: Deteriorated (NPC patients; [1]): 1
- Memory: Improved (NPC patients; [1]): 10
- Memory: Stable (NPC patients; [1]): 2
- Speech: Deteriorated (NPC patients; [1]): 3
- Speech: Improved (NPC patients; [1]): 3
- Speech: Stable (NPC patients; [1]): 7
- Swallow: Deteriorated (NPC patients; [1]): 1
- Swallow: Improved (NPC patients; [1]): 10
- Swallow: Stable (NPC patients; [1]): 2
- patients with negative slopes following initiation of treatment (NPC patients; of 13 NPC patients): 10
- patients with no slope following initiation of treatment (NPC patients; of 13 NPC patients): 3
- median increase in lifespan (Sandhoff (Hexb^−/−) mice): 8 days
